Laboratory results taken from DBAASP.
Values after ≈ are worked out from the molar mass of the structure shown.

Key:
Assay in all cases: ≥ marks a high value that may be exact or a test limit, other limits are often not marked, values filed in µg/mL are converted to µM
[1] = test system: Candida albicans CCARM 14020
[2] = test system: Candida albicans CCARM 14021
[3] = test system: Candida albicans CCARM 14022
[4] = test system: Candida albicans SC5314
[5] = test system: Pseudomonas aeruginosa ATCC 10662
[6] = test system: Staphylococcus epidermidis ATCC 1435
[7] = test system: Klebsiella pneumoniae ATCC 27736
[8] = test system: Acinetobacter baumannii
[9] = test system: Pseudomonas aeruginosa ATCC BAA-427
[10] = test system: Bacillus subtilis ATCC 6633
[11] = test system: Staphylococcus aureus
[12] = test system: Vibrio campbellii KCCM 40684
[13] = test system: Vibrio harveyi ATCC 14126
[14] = test system: Edwardsiella tarda
[15] = test system: Vibrio alginolyticus KCCM 2928
[16] = test system: Escherichia coli JM109
[17] = test system: Streptococcus iniae FP5228
[18] = test system: Vibrio vulnificus KCTC 2982
[19] = test system: Vibrio ordalii KCCM 41669
[20] = test system: Staphylococcus aureus ATCC 25923
[21] = test system: Escherichia coli ATCC 25922
[22] = test system: Staphylococcus epidermidis ATCC 14490
[23] = test system: Candida albicans ATCC 10231
[24] = test system: Klebsiella pneumoniae ATCC 200603
[25] = test system: Candida tropicalis PCM 2681
[26] = test system: Pseudomonas aeruginosa ATCC 9027
[27] = test system: Mycobacterium tuberculosis CSU87
[28] = test system: Mycobacterium tuberculosis 212
[29] = test system: Mycobacterium tuberculosis 411
[30] = test system: Mycobacterium tuberculosis 173
[31] = test system: Mycobacterium tuberculosis H37Rv
[32] = test system: Xanthomonas campestris pv. campestris
[33] = test system: Xanthomonas oryzae pv. oryzae
[34] = test system: Cryptococcus neoformans var. grubii H99
[35] = test system: Bacillus subtilis
[36] = test system: Pseudomonas aeruginosa ATCC 27853
[37] = test system: Escherichia coli DH5alpha
[38] = test system: Pseudomonas aeruginosa CGMCC 1.860
[39] = test system: Pseudomonas aeruginosa 0108
[40] = test system: Enterococcus faecalis CGMCC 1.595
[41] = test system: Lactococcus lactis AS1.1690
[42] = test system: Enterococcus faecium CGMCC 1.2334
[43] = test system: Escherichia coli AS1.349
[44] = test system: Staphylococcus aureus AS1.72
[45] = test system: Bacillus cereus AS1.126

SMILES: CC(C)C[C@H](NC(=O)CNC(=O)[C@H](Cc1cnc[nH]1)NC(=O)[C@H](Cc1cnc[nH]1)NC(=O)[C@H](CCCN=C(N)N)NC(=O)[C@H](CCCCN)NC(=O)[C@H](C)N)C(=O)N[C@@H](CC(N)=O)C(=O)N[C@@H](CS)C(=O)N[C@@H](C)C(=O)N[C@@H](CCCCN)C(=O)NCC(=O)N[C@H](C(=O)N[C@@H](CC(C)C)C(=O)N[C@@H](C)C(N)=O)C(C)C [AKRHHGLNCAKGVLA]
- MIC [1]: 14.4 µM (≈ 22.6 µg/mL)
- MIC [2]: 3.59 µM (≈ 5.65 µg/mL)
- MIC [3]: 3.59 µM (≈ 5.65 µg/mL)
- MIC [4]: 14.4 µM (≈ 22.6 µg/mL)

SMILES: CC[C@H](C)[C@H](NC(=O)CNC(=O)[C@H](CCCN=C(N)N)NC(=O)[C@H](Cc1ccccc1)NC(=O)[C@@H](NC(=O)[C@H](Cc1cnc[nH]1)NC(=O)[C@H](Cc1cnc[nH]1)NC(=O)[C@H](Cc1ccccc1)NC(=O)[C@@H](N)Cc1ccccc1)[C@@H](C)CC)C(=O)N[C@H](C(=O)N[C@@H](Cc1cnc[nH]1)C(=O)N[C@H](C(=O)NCC(=O)N[C@@H](CCCCN)C(=O)N[C@H](C(=O)N[C@@H](C)C(=O)N[C@@H](Cc1cnc[nH]1)C(=O)N[C@@H](CCCN=C(N)N)C(=O)N[C@@H](CC(C)C)C(=O)N[C@H](C(=O)N[C@H](C(=O)NCC(N)=O)[C@@H](C)O)C(C)C)[C@@H](C)O)C(C)C)C(C)C [FFHHIFRGIVHVGKTAHRLVTG]
- MIC [5]: 9.88 µM (≈ 25 µg/mL)
- MIC [6]: 0.593 µM (≈ 1.5 µg/mL)
- MIC [7]: 8 µM (≈ 20.2 µg/mL)
- MIC [8]: 1.23 µM (≈ 3.1 µg/mL)
- MIC [9]: 12 µM (≈ 30.3 µg/mL)
- MIC [10]: 8 µM (≈ 20.2 µg/mL)
- MIC [11]: 1.23 µM (≈ 3.1 µg/mL)

SMILES: CC[C@H](C)[C@H](NC(=O)[C@H](C)NC(=O)[C@H](Cc1cnc[nH]1)NC(=O)CNC(=O)[C@@H](NC(=O)CNC(=O)[C@H](Cc1cnc[nH]1)NC(=O)[C@H](CC(C)C)NC(=O)[C@H](CC(C)C)NC(=O)[C@H](CCSC)NC(=O)CNC(=O)[C@H](CC(C)C)NC(=O)[C@H](Cc1ccccc1)NC(=O)CNC(=O)[C@H](CCC(=O)O)NC(=O)CN)C(C)C)C(=O)N[C@@H](Cc1cnc[nH]1)C(=O)NCC(=O)N[C@@H](CC(C)C)C(=O)N[C@H](C(=O)N[C@@H](Cc1cnc[nH]1)C(=O)NCC(=O)N[C@@H](CCCCN)C(=O)O)[C@@H](C)CC [GEGFLGMLLHGVGHAIHGLIHGK]
- MIC [12]: 1.9 µM (≈ 4.47 µg/mL)
- MIC [13]: 0.9 µM (≈ 2.12 µg/mL)
- MIC [14]: ≥ 354 µM
- MIC [15]: 1.31 µM (≈ 3.07 µg/mL)
- MIC [16]: 2.72 µM (≈ 6.4 µg/mL)
- MIC [17]: 0.9 µM (≈ 2.12 µg/mL)
- MIC [18]: 5.52 µM (≈ 13 µg/mL)
- MIC [19]: 0.9 µM (≈ 2.12 µg/mL)

SMILES: CC[C@H](C)[C@H](N)C(=O)N[C@H]1CSSC[C@@H](C(=O)N[C@H](C(=O)O)[C@@H](C)CC)NC(=O)[C@H](Cc2cnc[nH]2)NC(=O)[C@H](Cc2cnc[nH]2)NC1=O [ICHHCI]
- MIC [20]: > 706 µM
- MIC [21]: > 706 µM
- MIC [22]: ≥ 706 µM
- MIC [23]: > 706 µM
- MIC [24]: ≥ 706 µM
- MIC [10]: ≥ 706 µM
- MIC [25]: ≥ 706 µM
- MIC [26]: > 706 µM

SMILES: CC[C@H](C)[C@H](N)C(=O)N[C@@H](CC(C)C)C(=O)N[C@@H](CC(C)C)C(=O)N[C@@H](CCCCN)C(=O)N[C@@H](CCCCN)C(=O)N[C@@H](CC(C)C)C(=O)N[C@@H](CC(C)C)C(=O)N[C@@H](CCCCN)C(=O)N[C@@H](CCCCN)C(=O)N[C@H](C(N)=O)[C@@H](C)CC [ILLKKLLKKI]
- MIC [27]: ≥ 207 µM
- MIC [28]: ≥ 413 µM
- MIC [29]: ≥ 207 µM
- MIC [30]: ≥ 413 µM
- MIC [31]: ≥ 413 µM

SMILES: CC(C)C[C@H](NC(=O)CNC(=O)[C@H](CS)NC(=O)CNC(=O)[C@H](CC(N)=O)NC(=O)CNC(=O)[C@H](Cc1c[nH]c2ccccc12)NC(=O)CNC(=O)[C@H](CCCN=C(N)N)NC(=O)[C@H](C)NC(=O)[C@@H](N)C(C)C)C(=O)N[C@@H](Cc1ccccc1)C(=O)NCC(=O)N[C@@H](CCCCN)C(=O)NCC(=O)NCC(=O)O [VARGWGNGCGLFGKGG]
- MIC [32]: ≥ 100 µM
- MIC [33]: ≥ 100 µM
- MIC [34]: ≥ 100 µM
- MIC [4]: ≥ 100 µM
- MIC [35]: ≥ 100 µM
- MIC [36]: > 100 µM
- MIC [37]: ≥ 100 µM

SMILES: CC[C@H](C)[C@H](NC(=O)[C@H](CCCCN)NC(=O)[C@H](CO)NC(=O)[C@H](CC(C)C)NC(=O)[C@@H](NC(=O)[C@H](CCCCN)NC(=O)[C@H](CCCCN)NC(=O)[C@@H](N)Cc1c[nH]c2ccccc12)[C@@H](C)CC)C(=O)N[C@@H](CCCCN)C(=O)N[C@@H](CCCCN)C(=O)N[C@@H](CC(C)C)C(=O)N[C@@H](CC(C)C)C(=O)N[C@@H](CCCCN)C(N)=O [WKKILSKIKKLLK]
- MIC [38]: 3.13 µM (≈ 5.09 µg/mL)
- MIC [39]: 6.25 µM (≈ 10.2 µg/mL)

SMILES: NC(N)=NCCC[C@H](NC(=O)[C@H](Cc1cnc[nH]1)NC(=O)[C@H](Cc1c[nH]c2ccccc12)NC(=O)[C@H](Cc1ccccc1)NC(=O)[C@H](CCCN=C(N)N)NC(=O)[C@H](CCCN=C(N)N)NC(=O)[C@H](Cc1c[nH]c2ccccc12)NC(=O)[C@H](Cc1cnc[nH]1)NC(=O)[C@H](CCCN=C(N)N)NC(=O)[C@@H](N)Cc1c[nH]c2ccccc12)C(=O)O [WRHWRRFWHR]
- MIC [40]: 3.13 µM (≈ 5.08 µg/mL)
- MIC [38]: 3.13 µM (≈ 5.08 µg/mL)
- MIC [41]: 6.25 µM (≈ 10.1 µg/mL)
- MIC [42]: 6.25 µM (≈ 10.1 µg/mL)
- MIC [43]: 25 µM (≈ 40.6 µg/mL)
- MIC [44]: ≥ 50 µM
- MIC [45]: 6.25 µM (≈ 10.1 µg/mL)
